According to ChEMBL document CHEMBL6178020, “Harder than Metal: Challenging Antimicrobial Resistance with Metallo-β-lactamase Inhibitors” (J Med Chem, 2025):

How the values were obtained:
[1] = molecular target: T1, Metallo-beta-lactamase type 2 (Bacteria, UniProt C7C422); test: Inhibition of Metallo-beta-lactamase NDM-1 (unknown origin)
[2] = molecular target: T1, Metallo-beta-lactamase type 2; test: Inhibition of N-terminal NDM-1 (unknown origin) extracted from Escherichia coli BL21
[3] = molecular target: T1, Metallo-beta-lactamase type 2; test: Binding affinity to N-terminal NDM-1 (unknown origin) extracted from Escherichia coli BL21 assessed as inhibition constant
Serratia marcescens [4] = test: Antibacterial activity against Serratia marcescens expressing IMP-1 assessed as bacterial growth inhibition in presence of IPM; type: functional
Klebsiella pneumoniae [5] = test: Antibacterial activity against Klebsiella pneumoniae expressing VIM-1 assessed as bacterial growth inhibition in presence of IPM; type: functional
Escherichia coli [6] = test: Antibacterial activity against Escherichia coli expressing NDM-1 assessed as bacterial growth inhibition in presence of IPM; type: functional
[7] = molecular target: T1, Metallo-beta-lactamase type 2; test: Inhibition of NDM-1 (unknown origin)
Escherichia coli [8] = test: Antibacterial activity against carbapenem-resistant Escherichia coli IHMA 997800 infected in mouse assessed as fold reduction in bacterial load at 10 mg/kg, sc measured for 24 hrs in presence of Meropenem; type: functional
Escherichia coli [9] = test: Antibacterial activity against carbapenem-resistant Escherichia coli IR57 infected in mouse assessed as fold reduction in bacterial load at 10 mg/kg, sc measured for 24 hrs in presence of Meropenem; type: functional
Escherichia coli [10] = test: Antibacterial activity against carbapenem-resistant Escherichia coli […] infected in mouse assessed as fold reduction in bacterial load at 10 mg/kg, sc measured for 24 hrs in presence of Meropenem; type: functional
Klebsiella pneumoniae [11] = test: Antibacterial activity against carbapenem-resistant Klebsiella pneumoniae B68-1 infected in mouse assessed as fold reduction in bacterial load at 10 mg/kg, sc measured for 24 hrs in presence of Meropenem; type: functional
Escherichia coli [12] = test: Antibacterial activity against Escherichia coli expressing NDM-1 assessed as bacterial growth inhibition; type: functional
Klebsiella pneumoniae [13] = test: Antibacterial activity against Klebsiella pneumoniae expressing VIM-1 assessed as bacterial growth inhibition; type: functional
Serratia marcescens [14] = test: Antibacterial activity against Serratia marcescens expressing IMP-1 assessed as bacterial growth inhibition; type: functional

T1 sequence (C7C422 whole entry): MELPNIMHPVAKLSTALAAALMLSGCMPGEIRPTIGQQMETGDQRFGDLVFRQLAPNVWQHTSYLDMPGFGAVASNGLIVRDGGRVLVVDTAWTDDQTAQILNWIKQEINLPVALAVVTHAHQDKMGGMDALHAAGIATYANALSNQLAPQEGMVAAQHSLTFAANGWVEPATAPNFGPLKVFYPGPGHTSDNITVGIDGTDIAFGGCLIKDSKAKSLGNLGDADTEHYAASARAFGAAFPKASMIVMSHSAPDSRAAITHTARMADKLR

Compound `O=C(O)CN1CCN(CC(=O)O)CCN(CC(=O)O)CC1` has an IC50 [1] of 0.28 µM.
`Nc1cccc(-c2cc(C(=O)O)nc(C(=O)O)c2)c1` was tested, and the IC50 ([2]; read-out: IC50) was 0.08 µM.
`N[C@H](CN[C@H](CN[C@@H](CC(=O)O)C(=O)O)C(=O)O)C(=O)O` showed an IC50 [1] of 4 µM.
With `O=C(O)c1ncsc1NS(=O)(=O)c1cccnc1` the Ki [3] was 0.8 µM.
Compound `C[C@H](CS)C(=O)N1CCc2ccccc2[C@@H]1C(=O)O` has an IC50 [1] of 4.6 µM.
With `C[C@H](CS)C(=O)N1CCC(C(N)=O)CC1` the IC50 [1] was 11.1 µM.
With `C[C@H](CS)C(=O)N1CCC[C@H](C(=O)O)C1` the IC50 [1] was 28.4 µM.
Compound `C[C@H](CS)C(=O)N1CCCCC[C@@H]1C(=O)O` has an IC50 [1] of 20.4 µM.
`C[C@H](CS)C(=O)N1CCC(CC(N)=O)CC1` showed an IC50 [1] of 27.9 µM.
`C[C@H](CS)C(=O)N1CCCC[C@@H]1C(=O)O` was tested, and the IC50 [1] was 6.9 µM.
In the case of `C[C@H](CS)C(=O)N1Cc2ccccc2C[C@@H]1C(=O)O`, the IC50 [1] is reported as > 300 µM.
`O=C(O)[C@H]1CCCN1C(=O)C(CS)CS` was tested, and the IC50 [1] was 75 µM.
In the case of `C[C@H](CS)C(=O)N1CCC(C(=O)O)CC1`, the IC50 [1] is reported as 4.9 µM.
For `C[C@H](CS)C(=O)N1CCC(CC(=O)O)CC1`, the IC50 [1] was 19.8 µM.
Work on `NS(=O)(=O)c1nccc(-c2ccc(CO)cc2)c1-c1nn[nH]n1` yielded an MITC95 (Serratia marcescens [4]) of 5.19 µM, an MITC95 (Klebsiella pneumoniae [5]) of 11.76 µM and an MITC95 (Escherichia coli [6]) of 0.558 µM. The IC50 [7] was 0.035 µM.
With `Nc1cc(-c2nnn[nH]2)c(S(N)(=O)=O)cc1S(N)(=O)=O` the IC50 [7] was 0.033 µM.
In the case of `Cc1ccc(-c2cccc(S(N)(=O)=O)c2-c2nnn[nH]2)cc1`, the MITC95 (Serratia marcescens [4]) is reported as 13.8 µM, the MITC95 (Klebsiella pneumoniae [5]) is reported as 127 µM and the MITC95 (Escherichia coli [6]) is reported as 1.48 µM.
With `N=C(N)NNC(=O)Nc1c(F)cc(S(=O)(=O)Nc2scnc2C(=O)O)cc1F` the Ki [3] was 0.04 µM.
Work on `COc1ccc(Cl)cc1-c1c(C(=O)O)[nH]c2c1CCc1ccccc1-2` yielded an IC50 ([2]; read-out: IC50) of 0.05 µM.
In the case of `C[C@@H](c1cccc2c(-c3ccc(CS(C)(=O)=O)c(F)c3)c(C(=O)O)[nH]c12)N1CC2(CC(CN)C2)OC1=O` (stereo not given in full), the “fold change (FC)” value (Escherichia coli [8]) is reported as 7, the “fold change (FC)” value (Escherichia coli [9]) is reported as 7 and the “fold change (FC)” value (Escherichia coli [10]) is reported as 7. For the same compound, the IC50 ([2]; read-out: pIC50 (converted)) was < 0.001 µM and the “fold change (FC)” value (Klebsiella pneumoniae [11]) was 7.
For `OCC(S)CS` (stereo not given) [DIMERCAPROL], the IC50 [1] was 1.3 µM.
Work on `C[C@@H](O)[C@H]1C(=O)N2C(C(=O)O)=C(SCCNC=N)C[C@H]12` [IMIPENEM ANHYDROUS] yielded an MITC95 (Escherichia coli [12]) of 32 µg/mL, an MITC95 (Klebsiella pneumoniae [13]) of 64 µg/mL and an MITC95 (Serratia marcescens [14]) of 16 µg/mL.
In the case of `O=C(O)CN1CCN(CC(=O)O)CCN(CC(=O)O)CCN(CC(=O)O)CC1` [TETRAXETAN], the IC50 [1] is reported as 1.34 µM.
For `O=C(O)CNC(=O)C(CS)Cc1ccccc1` (stereo not given) [THIORPHAN], the IC50 [1] was 1.8 µM.
